Patent US8841321B2, “Quinoline derivatives as antibacterial agents” (Janssen Pharmaceutica NV, priority 2005, dated 2014)
Converted amounts (≈) assume the structure as drawn. Each block holds one compound with its values, some of them ahead of it.

Legend:
[1] = tested on: SPN 6305 (Streptococcus pneumoniae (ATCC6305)); experiment: Microtitre plate assay, IC90 determination; assay type: cell-based; settings: for IC90 (μg/ml) SPN 6305: Streptococcus pneumoniae (ATCC6305)
In short: (§1)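 Growth-inhibition endpoint: resazurin added 3 h after inoculation, plates incubated overnight, fluorescence at 530/590 nm after 24 h at 37 °C. Inocula of roughly 10–60 CFU per well in Mueller-Hinton medium; compounds titrated five-fold. IC90 reported as μg/ml.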

[2] = tested on: STA 29213 (Staphylococcus aureus (ATCC29213)); experiment: Microtitre plate assay, IC90 determination; assay type: cell-based; settings: for IC90 (μg/ml) STA 29213: Staphylococcus aureus (ATCC29213); for IC90: Staphylococcus aureus, ATCC29213, Staphylococcus aureus (ATCC29213), read-out: IC90 (μg/ml) STA 29213
In short: as §1

[3] = tested on: EFA 29212 (Enterococcus faecalis (ATCC29212)); experiment: Microtitre plate assay, IC90 determination; assay type: cell-based; settings: for IC90: Enterococcus faecalis, ATCC29212, Enterococcus faecalis (ATCC29212), read-out: IC90 (μg/ml) EFA 29212; for IC90 (μg/ml) EFA 29212: Enterococcus faecalis (ATCC29212)
[4] = tested on: LMO 49594 (Listeria monocytogenes (ATCC49594)); experiment: Microtitre plate assay, IC90 determination; assay type: cell-based; settings: for IC90: Listeria monocytogenes, ATCC49594, Listeria monocytogenes (ATCC49594), read-out: IC90 (μg/ml) LMO 49594; for IC90 (μg/ml) LMO 49594: Listeria monocytogenes (ATCC49594)
[5] = tested on: STA 25923 (Staphylococcus aureus (ATCC25923)); experiment: Microtitre plate assay, IC90 determination; assay type: cell-based; settings: for IC90: Staphylococcus aureus, ATCC25923, Staphylococcus aureus (ATCC25923), read-out: IC90 (μg/ml) STA 25923; for IC90 (μg/ml) STA 25923: Staphylococcus aureus (ATCC25923)
[6] = tested on: BSU 43639 (Bacillus subtilis (ATCC43639)); experiment: Microtitre plate assay, IC90 determination; assay type: cell-based; settings: for IC90: Bacillus subtilis, ATCC43639, Bacillus subtilis (ATCC43639), read-out: IC90 (μg/ml) BSU 43639; for IC90 (μg/ml) BSU 43639: Bacillus subtilis (ATCC43639)
[7] = tested on: SPY 8668 (Streptococcus pyogens (ATCC8668)); experiment: Microtitre plate assay, IC90 determination; assay type: cell-based; settings: for IC90: Streptococcus, ATCC8668, Streptococcus pyogens (ATCC8668), read-out: IC90 (μg/ml) SPY 8668; for IC90 (μg/ml) SPY 8668: Streptococcus pyogens (ATCC8668)
[8] = tested on: PAE 27853 (Pseudomonas aeruginosa (ATCC27853)); experiment: Microtitre plate assay, IC90 determination; assay type: cell-based; settings: for IC90: Pseudomonas aeruginosa, ATCC27853, Pseudomonas aeruginosa (ATCC27853), read-out: IC90 (μg/ml) PAE 27853; for IC90 (μg/ml) PAE 27853: Pseudomonas aeruginosa (ATCC27853)
[9] = tested on: STA RMETH (methicilline resistant Staphylococcus aureus (MRSA), a clinical isolate from the University of Antwerp); experiment: Microtitre plate assay, IC90 determination; assay type: cell-based; settings: for IC90: Staphylococcus aureus, MRSA, read-out: IC90 (μg/ml) STA RMETH

IC90 [3]: 10.9 µg/mL (≈ 17.8 µM) | IC90 [4]: 4.3 µg/mL (≈ 7.01 µM) | IC90 [5]: 12.2 µg/mL (≈ 19.9 µM) | IC90 [6]: 9.7 µg/mL (≈ 15.8 µM) | IC90 [7]: 4.3 µg/mL (≈ 7.01 µM) | IC90 (μg/ml) SPN 6305 [1]: 9.7 µg/mL (≈ 15.8 µM) | IC90 (μg/ml) STA 29213 [2]: 1.9 µg/mL (≈ 3.1 µM) | IC90 [8]: 1.9 µg/mL (≈ 3.1 µM) | IC90 [9]: 4.3 µg/mL (≈ 7.01 µM)
Structure (SMILES): COc1ccc2cc(C(O)(CCCCN(C)C)C(c3ccccc3)c3cc4ccc(Br)cc4nc3OC)ccc2c1 (stereo not drawn) [Compound 31]

IC90 (μg/ml) EFA 29212 [3]: 25.4 µg/mL (≈ 44.6 µM) | IC90 (μg/ml) LMO 49594 [4]: 2.3 µg/mL (≈ 4.04 µM) | IC90 (μg/ml) STA 25923 [5]: 12.8 µg/mL (≈ 22.5 µM) | IC90 (μg/ml) BSU 43639 [6]: 11.4 µg/mL (≈ 20 µM) | IC90 (μg/ml) SPY 8668 [7]: 11.4 µg/mL (≈ 20 µM) | IC90 (μg/ml) SPN 6305 [1]: 5.1 µg/mL (≈ 8.95 µM) | IC90 (μg/ml) STA 29213 [2]: 57.0 µg/mL (≈ 100 µM) | IC90 (μg/ml) PAE 27853 [8]: 10.1 µg/mL (≈ 17.7 µM) | IC90 (μg/ml) STA RMETH [9]: 12.8 µg/mL (≈ 22.5 µM)
Structure (SMILES): COc1nc2ccc(Br)cc2cc1C(c1ccccc1)C(O)(CCCN(C)C)c1ccc2ccccc2c1 (stereo not drawn) [Compound 47]

IC90 [3]: 50.8 µg/mL (≈ 89.2 µM) | IC90 (μg/ml) LMO 49594 [4]: 45.2 µg/mL (≈ 79.4 µM) | IC90 (μg/ml) STA 25923 [5]: 50.8 µg/mL (≈ 89.2 µM) | IC90 (μg/ml) BSU 43639 [6]: 57.0 µg/mL (≈ 100 µM) | IC90 (μg/ml) SPY 8668 [7]: 50.8 µg/mL (≈ 89.2 µM) | IC90 (μg/ml) SPN 6305 [1]: 57.0 µg/mL (≈ 100 µM) | IC90 [2]: 57 µg/mL (≈ 100 µM) | IC90 [8]: 12.8 µg/mL (≈ 22.5 µM) | IC90 (μg/ml) STA RMETH [9]: 50.8 µg/mL (≈ 89.2 µM)
Structure (SMILES): COc1nc2ccc(Br)cc2cc1C(c1ccccc1)C(O)(CCCN(C)C)c1ccc2ccccc2c1 (stereo not drawn) [Compound 46]

IC90 [3]: 14.7 µg/mL (≈ 25.2 µM) | IC90 [4]: 11.6 µg/mL (≈ 19.9 µM) | IC90 [5]: 14.7 µg/mL (≈ 25.2 µM) | IC90 [6]: 14.7 µg/mL (≈ 25.2 µM) | IC90 [7]: 14.7 µg/mL (≈ 25.2 µM) | IC90 ([1]; Streptococcus pneumoniae, ATCC6305, Streptococcus pneumoniae (ATCC6305), read-out: IC90 (μg/ml) SPN 6305): 14.7 µg/mL (≈ 25.2 µM) | IC90 [2]: 14.7 µg/mL (≈ 25.2 µM) | IC90 [8]: 14.7 µg/mL (≈ 25.2 µM) | IC90 [9]: 14.7 µg/mL (≈ 25.2 µM)
Structure (SMILES): COc1nc2ccc(Br)cc2cc1C(c1ccccc1)C(O)(CCCCN(C)C)c1cccc2ccccc12 (stereo not drawn) [Compound 19]

melting point: 105 °C | IC90 (μg/ml) SPN 6305 [1]: 9.0 µg/mL (≈ 17.8 µM) | IC90 (μg/ml) STA 29213 [2]: 8.0 µg/mL (≈ 15.9 µM)
Structure (SMILES): COc1nc2ccccc2cc1C(c1ccccc1)C(O)(CCCCN(C)C)c1ccc2ccccc2c1 (stereo not drawn) [Compound 36]

melting point: 170 °C | IC90 (μg/ml) SPN 6305 [1]: 58.4 µg/mL (≈ 100 µM) | IC90 (μg/ml) STA 29213 [2]: 1.9 µg/mL (≈ 3.26 µM) | IC90 (μg/ml) STA RMETH [9]: 9.3 µg/mL (≈ 15.9 µM)
Structure (SMILES): COc1nc2cccc(Br)c2cc1C(c1ccccc1)C(O)(CCCCN(C)C)c1ccc2ccccc2c1 (stereo not drawn) [Compound 28]

More lines, now with the values behind:

Structure (SMILES): COc1nc2ccc(Br)cc2cc1C(c1ccccc1)C(O)(CCCCN(C)C)c1cccnc1 (stereo not drawn) [Compound 15]
melting point: 150 °C | IC90 (μg/ml) SPN 6305 [1]: 53.5 µg/mL (≈ 100 µM) | IC90 (μg/ml) STA 29213 [2]: 53.5 µg/mL (≈ 100 µM)

Structure (SMILES): COc1nc2ccc(Br)cc2cc1C(c1ccccc1)C(O)(CCCCN(C)C)c1cc(F)ccc1F (stereo not drawn) [Compound 13]
melting point: 166 °C | IC90 (μg/ml) SPN 6305 [1]: 25.4 µg/mL (≈ 44.6 µM)

Structure (SMILES): COc1ccc2cc(C(O)(CCCCN(C)C)C(c3ccccc3)c3cc4c(Br)cccc4nc3OC)ccc2c1 (stereo not drawn) [Compound 27]
IC90 (μg/ml) EFA 29212 [3]: 61.4 µg/mL (≈ 100 µM) | IC90 [4]: 61.4 µg/mL (≈ 100 µM) | IC90 [5]: 61.4 µg/mL (≈ 100 µM) | IC90 [6]: 48.7 µg/mL (≈ 79.4 µM) | IC90 (μg/ml) SPY 8668 [7]: 48.7 µg/mL (≈ 79.4 µM) | IC90 (μg/ml) SPN 6305 [1]: 61.4 µg/mL (≈ 100 µM) | IC90 [2]: 1.9 µg/mL (≈ 3.1 µM) | IC90 (μg/ml) PAE 27853 [8]: 9.7 µg/mL (≈ 15.8 µM) | IC90 (μg/ml) STA RMETH [9]: 61.4 µg/mL (≈ 100 µM)

Structure (SMILES): COc1nc2ccc(Br)cc2cc1C(c1ccccc1)C(O)(CCCN1CCCC1)c1ccc2ccccc2c1 (racemic) [Compound 49]
IC90 (μg/ml) EFA 29212 [3]: 47.3 µg/mL (≈ 79.4 µM) | IC90 (μg/ml) LMO 49594 [4]: 47.3 µg/mL (≈ 79.4 µM) | IC90 (μg/ml) STA 25923 [5]: 59.6 µg/mL (≈ 100 µM) | IC90 (μg/ml) BSU 43639 [6]: 59.6 µg/mL (≈ 100 µM) | IC90 (μg/ml) SPY 8668 [7]: 47.3 µg/mL (≈ 79.4 µM) | IC90 (μg/ml) SPN 6305 [1]: 11.9 µg/mL (≈ 20 µM) | IC90 (μg/ml) STA 29213 [2]: 47.3 µg/mL (≈ 79.4 µM) | IC90 (μg/ml) PAE 27853 [8]: 53.1 µg/mL (≈ 89.2 µM) | IC90 (μg/ml) STA RMETH [9]: 59.6 µg/mL (≈ 100 µM)
